Measured values: patent US20060111420A1, “Sorbicillactone-a derivatives for the treatment of tumour and viral diseases” (Johannes Gutenberg-Universitat Mainz, priority 2002, published 2006)

Legend:
[1] = system: L5178y mouse lymphoma cellular system (ATCC CRL 1722); assay: Antitumoural activity, L5178y cell proliferation (XTT); assay type: cell-based; details: for Optical density (595 nm): 72 h, XTT, control 0.38; for cellular proliferation after 72 h: at >0.1 μg/ml
[2] = system: mice-ear oedema; assay: TPA-induced mice-ear oedema; assay type: in vivo, mice (Swiss); details: 20 μg topically 10 min after TPA (10 μg); n=5; P<=0.01
[3] = target: phospholipase A2 [from bee's poison] (Apis mellifera, UniProt P00630); assay: biochemical; details: read-out: inhibition of phospholipase A2
Chain of phospholipase A2 [from bee's poison] (P00630 34-167 limits assumed): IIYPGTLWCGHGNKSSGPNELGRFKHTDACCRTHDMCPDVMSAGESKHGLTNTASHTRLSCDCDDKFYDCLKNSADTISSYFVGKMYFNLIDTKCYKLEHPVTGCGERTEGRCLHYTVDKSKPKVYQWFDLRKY

[4] = system: NMRI-mice
[5] = system: human foreskin-fibroblasts; assay: Proliferation of human foreskin-fibroblasts; assay type: cell-based; details: 30 μg/ml; cell count microscopically

C/C=C/C=C/C(O)=C1/C(=O)C(C)=C(O)C2(C)OC(=O)C(C)(NC(=O)C3NN=CC3C(=O)OC)C12 (stereo not drawn) [SOA-D1]
Optical density (595 nm) ([1]; 0.1 μg/ml): 0.29 | Optical density (595 nm) ([1]; 0.3 μg/ml): 0.22 | Optical density (595 nm) ([1]; 1.0 μg/ml): 0.05 | Optical density (595 nm) ([1]; 3.0 μg/ml): 0.03 | cellular proliferation after 72 h [1]: drastically reduced

C/C=C/C=C/C(O)=C1/C(=O)C(C)=C(O)[C@@]2(C)OC(=O)[C@@](C)(NC(=O)/C=C/C(=O)O)[C@@H]12 [Sorbicillacton A, sorbicillacton A]
inhibition of the formation of the oedema [2]: 39.2±5.3% | inhibition at 2 µg/mL [3]: ~80% | mortality ([4]; 20 mg/kg per day i.p. for five days): None of the test animals dies | sub-acute toxicity ([4]; male, NMRI, mouse, in vivo, ip, 5 days): > 20 mg/kg | Optical density (595 nm) ([1]; 0.1 μg/ml): 0.24 | Optical density (595 nm) ([1]; 0.3 μg/ml): 0.19 | Optical density (595 nm) ([1]; 1.0 μg/ml): 0.07 | Optical density (595 nm) ([1]; 3.0 μg/ml): 0.06 | cellular proliferation after 72 h [1]: drastically reduced | effect on the proliferation [5]: no effect on the proliferation
